Assay results taken from patent US8134015B2, “Compound inhibiting in vivo phosphorous transport and medicine containing the same” (Kyowa Hakko Kirin Co., Ltd., priority 2003, dated 2012).

biological target: T1, rat NaPi-2b (Rattus norvegicus, UniProt Q9JJ09); assay: Sodium-dependent phosphate uptake of Xenopus oocytes which expressed NaPi-2b (32P); assay type: cell-based; details: Xenopus oocytes expressing rat NaPi-2b, 32P radioactive phosphorus; read-out: IC50 (phosphate uptake inhibitory activity)
T1 construct: expressed in transfected cells; host or cells: Xenopus oocytes injected with cRNA
T1 sequence (Q9JJ09 1-695): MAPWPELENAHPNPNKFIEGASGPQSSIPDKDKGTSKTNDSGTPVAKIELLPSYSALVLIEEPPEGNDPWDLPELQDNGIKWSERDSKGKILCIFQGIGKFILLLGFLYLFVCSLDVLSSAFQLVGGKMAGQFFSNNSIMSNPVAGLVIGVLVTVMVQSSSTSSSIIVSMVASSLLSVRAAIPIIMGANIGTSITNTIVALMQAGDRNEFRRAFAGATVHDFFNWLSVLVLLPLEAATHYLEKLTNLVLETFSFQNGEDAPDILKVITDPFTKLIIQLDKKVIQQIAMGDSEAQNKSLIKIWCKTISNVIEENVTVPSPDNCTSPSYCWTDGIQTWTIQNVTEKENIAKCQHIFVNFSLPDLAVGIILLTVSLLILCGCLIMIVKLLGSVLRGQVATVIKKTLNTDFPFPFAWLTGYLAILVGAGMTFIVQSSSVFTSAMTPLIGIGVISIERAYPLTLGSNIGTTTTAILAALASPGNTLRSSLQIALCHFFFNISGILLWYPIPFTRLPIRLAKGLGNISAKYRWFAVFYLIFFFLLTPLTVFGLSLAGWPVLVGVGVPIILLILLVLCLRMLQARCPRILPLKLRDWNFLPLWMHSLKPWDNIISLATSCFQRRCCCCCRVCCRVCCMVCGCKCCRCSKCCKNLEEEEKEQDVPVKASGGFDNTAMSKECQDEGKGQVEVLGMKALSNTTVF
Method in brief: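 Percent inhibition at 300 μM and 100 μM comes from the same inhibition curve of 32P uptake. Assay used oocytes expressing rat NaPi-2b after 2 days of culture.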

Q: Which IC50 does the source give for Cc1ccc(/C=N/NC(=O)c2cc3ccccc3cc2NC(=O)c2cccc(CN3CCN(CCO)CC3)c2)cc1C [Compound 971, N-[3-(3,4-Dimethyl-benzylidene-hydrazinocarbonyl)-naphthalen-2-yl]-3-[4-(2-hydroxy-ethyl)-piperazin-1-ylmethyl]-benzamide] here?
A: The IC50 was less than 3 µM.

Q: For O=C(Nc1cc2ccccc2cc1C(=O)N/N=C/c1ccc(Cl)c(C(F)(F)F)c1)c1cccc(CN2CCN(CCO)CC2)c1 [Compound 972, N-[3-(4-Chloro-3-trifluoromethyl-benzylidene-hydrazinocarbonyl)-naphthalen-2-yl]-3-[4-(2-hydroxy-ethyl)-piperazin-1-ylmethyl]-benzamide], which IC50 is on record?
A: The IC50 was less than 3 µM.

Q: Which IC50 does the source give for COc1ccc(/C=N/NC(=O)c2cc3ccccc3cc2NC(=O)c2cccc(CN3CCN(CCO)CC3)c2)cc1 [Compound 973, 3-[4-(2-Hydroxy-ethyl)-piperazin-1-ylmethyl]-N-[3-(4-methoxy-benzylidene-hydrazinocarbonyl)-naphthalen-2-yl]-benzamide] here?
A: The IC50 was less than 3 µM.

Q: With CC(O)CN(Cc1cccc(C(=O)Nc2cscc2C(=O)N/N=C/c2cccc(F)c2)c1)CC(C)O (centres unmarked) [Compound 974, 3-{[Bis-(2-hydroxy-propyl)-amino]-methyl}-N-[4-(3-fluoro-benzylidene-hydrazinocarbonyl)-thiophen-3-yl]-benzamide] as the compound, how does the IC50 read?
A: Its IC50 is 12.6 µM.

Q: With Cc1cccc(/C=N/NC(=O)c2cscc2NC(=O)c2cccc(CN(CC(C)O)CC(C)O)c2)c1 (centres unmarked) [Compound 975, 3-{[Bis-(2-hydroxy-propyl)-amino]-methyl}-N-[4-(3-methyl-benzylidene-hydrazinocarbonyl)-thiophen-3-yl]-benzamide] as the compound, how does the IC50 read?
A: The IC50 was 17.4 µM.

Q: For Cc1ccc(/C=N/NC(=O)c2cscc2NC(=O)c2cccc(CN(CC(C)O)CC(C)O)c2)cc1 (centres unmarked) [Compound 976, 3-{[Bis-(2-hydroxy-propyl)-amino]-methyl}-N-[4-(4-methyl-benzylidene-hydrazinocarbonyl)-thiophen-3-yl]-benzamide], which IC50 is on record?
A: Its IC50 is 10.7 µM.

Q: For Cc1ccc(/C=N/NC(=O)c2cscc2NC(=O)c2cccc(CN(CC(C)O)CC(C)O)c2)cc1C (centres unmarked) [Compound 977, 3-{[Bis-(2-hydroxy-propyl)-amino]-methyl}-N-[4-(3,4-dimethyl-benzylidene-hydrazinocarbonyl)-thiophen-3-yl]-benzamide], which IC50 is on record?
A: Its IC50 is 10.1 µM.

Q: For O=C(Nc1cscc1C(=O)N/N=C/c1cccc(F)c1)c1cccc(CN2CCN(CCO)CC2)c1 [Compound 980, N-[4-(3-Fluoro-benzylidene-hydrazinocarbonyl)-thiophen-3-yl]-3-[4-(2-hydroxy-ethyl)-piperazin-1-ylmethyl]-benzamide], which IC50 is on record?
A: The IC50 was 13.8 µM.

Q: Which IC50 does the source give for Cc1ccc(/C=N/NC(=O)c2cscc2NC(=O)c2cccc(CN3CCN(CCO)CC3)c2)cc1 [Compound 981, 3-[4-(2-Hydroxy-ethyl)-piperazin-1-ylmethyl]-N-[4-(4-methyl-benzylidene-hydrazinocarbonyl)-thiophen-3-yl]-benzamide] here?
A: Its IC50 is 12.2 µM.

Q: For Cc1ccc(/C=N/NC(=O)c2cscc2NC(=O)c2cccc(CN3CCN(CCO)CC3)c2)cc1C [Compound 982, N-[4-(3,4-Dimethyl-benzylidene-hydrazinocarbonyl)-thiophen-3-yl]-3-[4-(2-hydroxy-ethyl)-piperazin-1-ylmethyl]-benzamide], which IC50 is on record?
A: Its IC50 is 8.05 µM.

Q: With O=C(Nc1cscc1C(=O)N/N=C/c1ccc(Cl)c(C(F)(F)F)c1)c1cccc(CN2CCN(CCO)CC2)c1 [Compound 983, N-[4-(4-Chloro-3-trifluoromethyl-benzylidene-hydrazinocarbonyl)-thiophen-3-yl]-3-[4-(2-hydroxy-ethyl)-piperazin-1-ylmethyl]-benzamide] as the compound, how does the IC50 read?
A: Its IC50 is 8.31 µM.

Q: With COc1ccc(/C=N/NC(=O)c2cscc2NC(=O)c2cccc(CN3CCN(CCO)CC3)c2)cc1 [Compound 984, 3-[4-(2-Hydroxy-ethyl)-piperazin-1-ylmethyl]-N-[4-(4-methoxy-benzylidene-hydrazinocarbonyl)-thiophen-3-yl]-benzamide] as the compound, how does the IC50 read?
A: Its IC50 is 22.1 µM.

Q: For Cc1ccc(/C=N/NC(=O)c2cc(F)ccc2NC(=O)c2cc(F)ccc2NC(=O)c2cccc(CN(CC(C)O)CC(C)O)c2)cc1C (centres unmarked) [Compound 986, 2-(3-{[Bis-(2-hydroxy-propyl)-amino]-methyl}-benzoylamino)-N-[2-(3,4-dimethyl-benzylidene-hydrazinocarbonyl)-4-fluoro-phenyl]-5-fluoro-benzamide], which IC50 is on record?
A: The IC50 was 29 µM.

Q: How did the IC50 turn out when CC(O)CN(Cc1cccc(C(=O)Nc2ccc(F)cc2C(=O)Nc2ccc(F)cc2C(=O)N/N=C/c2cccc(F)c2)c1)CC(C)O (centres unmarked) [Compound 988, 2-(3-{[Bis-(2-hydroxy-propyl)-amino]-methyl}-benzoylamino)-5-fluoro-N-[4-fluoro-2-(3-fluoro-benzylidene-hydrazinocarbonyl)-phenyl]-benzamide] was run?
A: The IC50 was 3.88 µM.

Q: C/C(=N\NC(=O)c1cc(Br)ccc1NC(=O)c1cccc(CN(CC(C)O)CC(C)O)c1)c1cccc(F)c1 (centres unmarked) [Compound 996, 3-{[Bis-(2-hydroxy-propyl)-amino]-methyl}-N-{4-bromo-2-[1-(3-fluoro-phenyl)-ethylidene-hydrazinocarbonyl]-phenyl}-benzamide] was tested. Which IC50 did it give?
A: The IC50 was 2.66 µM.

Q: COc1ccc(/C(C)=N/NC(=O)c2cc(Br)ccc2NC(=O)c2cccc(CN(CC(C)O)CC(C)O)c2)cc1 (centres unmarked) [Compound 997, 3-{[Bis-(2-hydroxy-propyl)-amino]-methyl}-N-{4-bromo-2-[1-(4-methoxy-phenyl)-ethylidene-hydrazinocarbonyl]-phenyl}-benzamide] was tested. Which IC50 did it give?
A: Its IC50 is 7.88 µM.

Q: CC(O)CN(Cc1cccc(C(=O)Nc2ccc(Cl)cc2C(=O)N/N=C/c2ccc(OCCCN(C)C)cc2)c1)CC(C)O (centres unmarked) [Compound 998, 3-{[Bis-(2-hydroxy-propyl)-amino]-methyl}-N-{4-chloro-2-[4-(3-dimethylamino-propoxy)-benzylidene-hydrazinocarbonyl]-phenyl}-benzamide] was tested. Which IC50 did it give?
A: Its IC50 is 16.6 µM.

Q: With CCN(CC)CCN(C)Cc1cccc(C(=O)Nc2ccc(Cl)cc2C(=O)N/N=C/c2ccc(OCCCN(C)C)cc2)c1 [Compound 999, N-{4-Chloro-2-[4-(3-dimethylamino-propoxy)-benzylidene-hydrazinocarbonyl]-phenyl}-3-{[(2-diethylamino-ethyl)-methyl-amino]-methyl}-benzamide] as the compound, how does the IC50 read?
A: The IC50 was 58.2 µM.

Q: Which IC50 does the source give for CCN(CC)CCN(C)Cc1cccc(C(=O)Nc2sc3c(c2C(=O)N/N=C/c2ccc(OC(F)(F)F)cc2)CCCC3)c1 [Compound 1001, 3-{[(2-Diethylamino-ethyl)-methyl-amino]-methyl}-N-[3-(4-trifluoromethoxy-benzylidene-hydrazinocarbonyl)-4,5,6,7-tetrahydro-benzo[b]thiophen-2-yl]-benzamide] here?
A: Its IC50 is less than 3 µM.

same assay, conditions: phosphate uptake, oocytes expressing rat NaPi-2b; 300 μM, determined from inhibition curve

Q: CC(O)CN(Cc1cccc(C(=O)Nc2cscc2C(=O)N/N=C/c2ccc(Cl)c(C(F)(F)F)c2)c1)CC(C)O (centres unmarked) [Compound 978, 3-{[Bis-(2-hydroxy-propyl)-amino]-methyl}-N-[4-(4-chloro-3-trifluoromethyl-benzylidene-hydrazinocarbonyl)-thiophen-3-yl]-benzamide] was tested. Which inhibition at 300 µM did it give?
A: Its inhibition at 300 µM is 74.1%.

Q: Which inhibition at 300 µM does the source give for COc1ccc(/C=N/NC(=O)c2cscc2NC(=O)c2cccc(CN(CC(C)O)CC(C)O)c2)cc1 (centres unmarked) [Compound 979, 3-{[Bis-(2-hydroxy-propyl)-amino]-methyl}-N-[4-(4-methoxy-benzylidene-hydrazinocarbonyl)-thiophen-3-yl]-benzamide] here?
A: The inhibition at 300 µM was 73.7%.

Q: For Cc1ccc(/C=N/NC(=O)c2sc(C(C)(C)C)cc2NC(=O)c2cccc(CN3CCN(CCO)CC3)c2)cc1C [Compound 991, N-[5-Tert-butyl-2-(3,4-dimethyl-benzylidene-hydrazinocarbonyl)-thiophen-3-yl]-3-[4-(2-hydroxy-ethyl)-piperazin-1-ylmethyl]-benzamide], which inhibition at 300 µM is on record?
A: The inhibition at 300 µM was 30.1%.

Q: CC(O)CN(Cc1cccc(C(=O)Nc2ccsc2C(=O)N/N=C/c2cccc(F)c2)c1)CC(C)O (centres unmarked) [Compound 992, 3-{[Bis-(2-hydroxy-propyl)-amino]-methyl}-N-[2-(3-fluoro-benzylidene-hydrazinocarbonyl)-thiophen-3-yl]-benzamide] was tested. Which inhibition at 300 µM did it give?
A: The inhibition at 300 µM was 31.9%.

Q: For CC(O)CN(Cc1cccc(C(=O)Nc2ccsc2C(=O)N/N=C/c2ccc(Cl)c(C(F)(F)F)c2)c1)CC(C)O (centres unmarked) [Compound 993, 3-{[Bis-(2-hydroxy-propyl)-amino]-methyl}-N-[2-(4-chloro-3-trifluoromethyl-benzylidene-hydrazinocarbonyl)-thiophen-3-yl]-benzamide], which inhibition at 300 µM is on record?
A: Its inhibition at 300 µM is 39.7%.

Q: CCN(CC)Cc1cccc(C(=O)Nc2ccsc2C(=O)N/N=C/c2cccc(F)c2)c1 [Compound 995, 3-Diethylaminomethyl-N-[2-(3-fluoro-benzylidene-hydrazinocarbonyl)-thiophen-3-yl]-benzamide] was tested. Which inhibition at 300 µM did it give?
A: Its inhibition at 300 µM is 42.1%.

Q: With CCN(CC)CCN(C)Cc1cccc(C(=O)Nc2ccc(Cl)cc2C(=O)N/N=C/c2ccc(OCC(=O)O)cc2)c1 [Compound 1000, (4-{[5-Chloro-2-(3-{[(2-diethylamino-ethyl)-methyl-amino]-methyl}-benzoylamino)-benzoyl]-hydrazinomethyl}-phenoxy)-acetic acid] as the compound, how does the inhibition at 300 µM read?
A: Its inhibition at 300 µM is 32.1%.
